Test results published in patent US20240025919A1, “AZA-TETRACYCLIC OXAZEPINE COMPOUNDS AND USES THEREOF” (Genentech, Inc., priority 2022, published 2024).
Several values for one entry are separate records, joined by “and”; a condition that tells them apart may be missing. Equal entries are not always repeated. Where two headings read alike, the source gives them in different places.

What was measured:
KRAS WT [1] = biological target: T1, KRAS WT (Homo sapiens (Human), UniProt P01116); experiment: KRAS WT Biochemical Assay, BODIPY-GDP Exchange TR-FRET (Example 501; 3 nM KRAS WT, 3 nM SOS1, 60-minute incubation)
In short: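 SOS1-mediated exchange assay: 3 nM biotin-KRAS WT with terbium-streptavidin, started with 3 nM SOS1 and 300 nM BODIPY-GDP, HEPES pH 7.5 with MgCl2. TR-FRET (520/490 nm) read after 60 min; normalized to DMSO and full-inhibition control, IC50 from 4-parameter Hill fit.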

[2] = system: AsPC-1 (homozygous mutant KRAS G12D human pancreatic cell line); experiment: KRAS 3D-Cell Proliferation Assay, AsPC-1 (CellTiter-Glo 3D, 7 days); type: cell-based; conditions: AsPC-1 3D culture, read-out: Prolif AsPC-1 3D ATP IC50
Procedure: (§1) Example 503: KRAS 3D-Cell Proliferation Assays. Cellular potencies of compounds are assessed by evaluating inhibition of proliferation in 3D cultures of homozygous mutant KRAS G12D human pancreatic cell lines (AsPC-1 and HPAC) as compared to a KRAS wild type human lung adenocarcinoma cell line (PC-9 and/or H1975). Cells are seeded into 384-well black round-bottom, ultra-low attachment assay plates in 50 uL cell growth medium (RPMI-1640 with 10% fetal bovine serum and 2 mM L-glutamine). After overnight incubation at 37° C. and 5% CO2, compounds solubilized in DMSO are added as dilution series to the wells in a total volume of 150 nL (0.3% DMSO final). The cells are incubated for 7 days at 37° C. and 5% CO2. Cell proliferation is quantitated by addition of 40 uL/well of CellTiter-GloO 3D (Promega), and the well contents are mixed 20× at high speed using liquid handling automation workstation (Bravo with 384-well head) and centrifuged at 1500 rpm for 2 minutes to eliminate bubbles. This reagent in combination with mechanical disruption releases the cellular ATP to promote activity in a luciferase-based enzyme/substrate chemiluminescent detection system. After a 30-minute incubation under ambient conditions with shaking and an additional 10 minutes without shaking, the luminescence is read on a plate reader (e.g. EnVision [PerkinElmer]). The results are normalized to percent inhibition based on the following control samples: DMSO (0% inhibition) and 1 uM staurosporine (100% inhibition). The normalized luminescence results are plotted against compound concentration, and the data are fit to a 4-parameter Hill equation to determine the IC50 values.

[3] = system: HPAC (homozygous mutant KRAS G12D human pancreatic cell line); experiment: KRAS 3D-Cell Proliferation Assay, HPAC (CellTiter-Glo 3D, 7 days); type: cell-based; conditions: Homo sapiens, HPAC, 168 h, HPAC 3D culture, read-out: Prolif HPAC 3D ATP IC50
In short: (§2)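 Cells were grown as 3D cultures in ultra-low attachment plates in RPMI-1640 with 10% FBS and 2 mM glutamine. Compound dilution series (0.3% DMSO final) were added after overnight culture, and plates were incubated for 7 days at 37 °C. CellTiter-Glo 3D luminescence was normalised to DMSO and 1 uM staurosporine, and IC50 was taken from 4-parameter Hill fits.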

KRAS G12D = KRAS G12D (Homo sapiens (Human), UniProt P01116, G12D); experiment: KRAS G12D LoEnz Biochemical Assay, BODIPY-GDP Exchange TR-FRET (SOS1-mediated nucleotide exchange); conditions: read-out: KRas (G12D) GDP HTRF IC50
[4] = system: H1975 (KRAS wild type human lung adenocarcinoma cell line); experiment: KRAS 3D-Cell Proliferation Assay, H1975 (CellTiter-Glo 3D, 7 days); type: cell-based; conditions: Homo sapiens, NCI-H1975, 168 h, H1975 3D culture, read-out: Prolif H1975 3D ATP IC50
In short: as §2

KRAS WT [5] = biological target: T1, KRAS WT; experiment: KRAS WT Biochemical Assay, BODIPY-GDP Exchange TR-FRET (Example 502; 0.06 nM KRAS WT, 15 nM GDP, 300 nM SOS1, 120-minute incubation); conditions: read-out: KRas HTRF IC50
In short: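 IC50 from a 4-parameter Hill fit of percent inhibition, itself the TR-FRET 520/490 nm ratio scaled between DMSO and a fully inhibiting control. Reaction: 300 nM SOS1 and 300 nM BODIPY-GDP added to preformed 0.06 nM KRAS WT/15 nM GDP/Tb-streptavidin complex; 120 min incubation; pH 7.5 HEPES, MgCl2, DTT.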

[6] = system: PC-9 (KRAS wild type human lung adenocarcinoma cell line); experiment: KRAS 3D-Cell Proliferation Assay, PC-9 (CellTiter-Glo 3D, 7 days); type: cell-based; conditions: PC-9 3D culture, read-out: Prolif PC9 3D ATP IC50
Procedure: as §1

[7] = read-out: KRas(wt) GDP HTRF IC50

T1 sequence (P01116-2 other isoform, or with tags, fused parts or gaps): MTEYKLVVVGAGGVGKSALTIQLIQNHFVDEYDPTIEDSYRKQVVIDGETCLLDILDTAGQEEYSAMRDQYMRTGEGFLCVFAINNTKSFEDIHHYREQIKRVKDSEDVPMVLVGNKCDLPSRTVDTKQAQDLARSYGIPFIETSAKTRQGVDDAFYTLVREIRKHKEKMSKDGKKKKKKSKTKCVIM
Sequence of KRAS G12D (P01116-2 other isoform, or with tags, fused parts or gaps G12D): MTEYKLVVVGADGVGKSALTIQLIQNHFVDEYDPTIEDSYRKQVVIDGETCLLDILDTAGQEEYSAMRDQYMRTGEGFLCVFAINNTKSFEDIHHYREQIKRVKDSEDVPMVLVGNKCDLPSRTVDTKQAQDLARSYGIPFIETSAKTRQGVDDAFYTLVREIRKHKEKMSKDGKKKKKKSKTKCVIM

## Cc1cc(N)c(F)c(-c2nc3c4c(nc(OCC56CCN5CC(F)(F)C6)nc4c2F)N2C[C@H]4CC[C@H](N4)[C@H]2[C@H](C)O3)c1 (single isomer, unassigned) [Compound 23]
KRAS WT [1]; [7]
  IC50: 39500 nM and 94500 nM
[2]
  IC50: 20000 nM

## Cc1c(F)c(N)cc(-c2nc3c4c(nc(OC[C@]56CCN(C)C5COC6)nc4c2F)N2C[C@H]4CC[C@H](N4)[C@H]2[C@H](C)O3)c1C(F)(F)F (single isomer, unassigned) [258 (isomer 2)]
[3]
  IC50: 2.68 nM
KRAS WT [1]; read-out: KRas HTRF IC50
  IC50: 11 nM
KRAS G12D
  IC50: 0.07 nM
[4]
  IC50: 1550 nM
[2]; Homo sapiens, ASPC1, 168 h
  IC50: 6.9 nM

## C=C1CN2CCC[C@@]2(COc2nc3c4c(nc(-c5nc(N)cc(C)c5C(F)(F)F)c(F)c4n2)O[C@@H](C)[C@@H]2[C@@H]4CC[C@H](CN32)N4)C1 [Compound 48, 6-((5S,5aS,6S,9R)-1-fluoro-5-methyl-12-(((S)-2-methylenetetrahydro-1H-pyrrolizin-7a(5H)-yl)methoxy)-5a,6,7,8,9,10-hexahydro-5H-4-oxa-3,10a,11,13,14-pentaaza-6,9-methanonaphtho[1,8-ab]heptalen-2-yl)-4-methyl-5-(trifluoromethyl)pyridin-2-amine]
KRAS WT [5]
  IC50: 28.5 nM
KRAS WT [1]; [7]
  IC50: 10.5 nM
KRAS G12D
  IC50: 0.491 nM
[6]; Homo sapiens, PC-9, 168 h
  IC50: 20000 nM

## Cc1cc(N)cc(-c2nc3c4c(nc(OC[C@@]56CCCN5C[C@H](F)C6)nc4c2F)N2C[C@H]4CC[C@H](N4)[C@H]2[C@H](C)O3)c1C(F)(F)F [Compound 16, 3-((5S,5aS,6S,9R)-1-fluoro-12-(((2R,7aS)-2-fluorotetrahydro-1H-pyrrolizin-7a(5H)-yl)methoxy)-5-methyl-5a,6,7,8,9,10-hexahydro-5H-4-oxa-3,10a,11,13,14-pentaaza-6,9-methanonaphtho[1,8-ab]heptalen-2-yl)-5-methyl-4-(trifluoromethyl)aniline]
KRAS WT [5]
  IC50: 0.484 nM
KRAS WT [1]; [7]
  IC50: 0.668 nM
KRAS G12D
  IC50: 0.138 nM
[6]; Homo sapiens, PC-9, 168 h
  IC50: 20000 nM

## Nc1nc2c(-c3nc4c5c(ncnc5c3F)N3C[C@H]5CC[C@H](N5)[C@H]3CO4)ccc(F)c2s1 [Compound 55, 7-fluoro-4-((5aS,6S,9R)-1-fluoro-5a,6,7,8,9,10-hexahydro-5H-4-oxa-3,10a,11,13,14-pentaaza-6,9-methanonaphtho[1,8-ab]heptalen-2-yl)benzo[d]thiazol-2-amine]
KRAS WT [1]; [7]
  IC50: 200000 nM
KRAS G12D
  IC50: 22200 nM
[2]; Homo sapiens, ASPC1, 168 h
  IC50: 20000 nM

## C[C@@H]1Oc2nc(-c3cnccc3C(F)(F)F)c(F)c3nc(OC[C@]45CCN4CC(F)(F)C5)nc(c23)N2C[C@H]3CC[C@H](N3)[C@@H]12 [Compound 78, (5S,5aS,6S,9R)-12-(((R)-3,3-Difluoro-1-azabicyclo[3.2.0]heptan-5-yl)methoxy)-1-fluoro-5-methyl-2-(4-(trifluoromethyl)pyridin-3-yl)-5a,6,7,8,9,10-hexahydro-5H-4-oxa-3,10a,11,13,14-pentaaza-6,9-methanonaphtho[1,8-ab]heptalene]
KRAS WT [5]
  IC50: 200000 nM
KRAS G12D
  IC50: 867 nM
[6]; Homo sapiens, PC-9, 168 h
  IC50: 20000 nM

## Cc1cc(N)c(F)c(-c2nc3c4c(nc(OC[C@@]56CCN5CC(F)(F)C6)nc4c2F)N2C[C@H]4CC[C@H](N4)[C@H]2[C@H](C)O3)c1C(F)(F)F [Compound 92, 3-((5S,5aS,6S,9R)-12-(((S)-3,3-Difluoro-1-azabicyclo[3.2.0]heptan-5-yl)methoxy)-1-fluoro-5-methyl-5a,6,7,8,9,10-hexahydro-5H-4-oxa-3,10a,11,13,14-pentaaza-6,9-methanonaphtho[1,8-ab]heptalen-2-yl)-2-fluoro-5-methyl-4-(trifluoromethyl)aniline]
KRAS WT [5]
  IC50: 34.9 nM and 148 nM
KRAS G12D
  IC50: 0.76 nM and 1.01 nM
[6]
  IC50: 8130 nM

## Cc1c(F)c(N)cc(-c2nc3c4c(nc(OC[C@@]56CCCN5C[C@H](F)C6)nc4c2F)N2C[C@H]4CC[C@H](N4)[C@@H]2C(C)O3)c1C(F)(F)F (single isomer, unassigned) [237 (isomer 2)]
KRAS WT [1]; read-out: KRas HTRF IC50
  IC50: 0.35 nM
KRAS G12D
  IC50: 0.15 nM
[2]; Homo sapiens, ASPC1, 168 h
  IC50: 200 nM

## C[C@@H]1Oc2nc(-c3cc(N)c(F)cc3C(F)(F)F)c(F)c3nc(OC[C@]45CCN4CC(F)(F)C5)nc(c23)N2C[C@H]3CC[C@H](N3)[C@@H]12 [Compound 71, 5-((5S,5aS,6S,9R)-12-(((R)-3,3-Difluoro-1-azabicyclo[3.2.0]heptan-5-yl)methoxy)-1-fluoro-5-methyl-5a,6,7,8,9,10-hexahydro-5H-4-oxa-3,10a,11,13,14-pentaaza-6,9-methanonaphtho[1,8-ab]heptalen-2-yl)-2-fluoro-4-(trifluoromethyl)aniline]
KRAS WT [5]
  IC50: 313 nM
KRAS G12D
  IC50: 3.51 nM
[6]; Homo sapiens, PC-9, 168 h
  IC50: 20000 nM

## C#Cc1cccc2cc(O)cc(-c3nc4c5c(nc(OC[C@@]67CCCN6C[C@H](F)C7)nc5c3F)N3C[C@H]5CC[C@H](N5)[C@H]3CO4)c12 [Compound 3, 5-ethynyl-4-((5aS,6S,9R)-1-fluoro-12-(((2R,7aS)-2-fluorotetrahydro-1H-pyrrolizin-7a(5H)-yl)methoxy)-5a,6,7,8,9,10-hexahydro-5H-4-oxa-3,10a,11,13,14-pentaaza-6,9-methanonaphtho[1,8-ab]heptalen-2-yl)naphthalen-2-ol]
KRAS WT [5]
  IC50: 0.757 nM
KRAS WT [1]; [7]
  IC50: 0.517 nM
KRAS G12D
  IC50: 0.058 nM
[6]; Homo sapiens, PC-9, 168 h
  IC50: 20000 nM

## C[C@@H]1Oc2nc(-c3nc(N)ccc3C(F)(F)F)c(F)c3nc(OC[C@@]45CCCN4C[C@H](F)C5)nc(c23)N2C[C@H]3CC[C@H](N3)[C@@H]12 [Compound 85, 6-((5S,5aS,6S,9R)-1-fluoro-12-(((2R,7aS)-2-fluorotetrahydro-1H-pyrrolizin-7a(5H)-yl)methoxy)-5-methyl-5a,6,7,8,9,10-hexahydro-5H-4-oxa-3,10a-11,13,14-pentaaza-6,9-methanonaphtho[1,8-ab]heptalen-2-yl)-5-(trifluoromethyl)pyridin-2-amine]
KRAS WT [5]
  IC50: 678 nM
KRAS G12D
  IC50: 3.28 nM
[6]; Homo sapiens, PC-9, 168 h
  IC50: 20000 nM

## C[C@@H]1Oc2nc(-c3nc(N)c(F)cc3C(F)(F)F)c(F)c3nc(OC[C@@]45CCCN4C[C@H](F)C5)nc(c23)N2C[C@H]3CC[C@H](N3)[C@@H]12 [Compound 84, 3-Fluoro-6-((5S,5aS,6S,9R)-1-fluoro-12-(((2R,7aS)-2-fluorotetrahydro-1H-pyrrolizin-7a(5H)-yl)methoxy)-5-methyl-5a,6,7,8,9,10-hexahydro-5H-4-oxa-3,10a,11,13,14-pentaaza-6,9-methanonaphtho[1,8-ab]heptalen-2-yl)-5-(trifluoromethyl)pyridin-2-amine]
KRAS WT [5]
  IC50: 4310 nM
KRAS G12D
  IC50: 24.9 nM
[6]; Homo sapiens, PC-9, 168 h
  IC50: 20000 nM

## C[C@@H]1Oc2nc(-c3nc(N)c(F)cc3C(F)(F)F)c(F)c3nc(OC[C@]45CCN4CC(F)(F)C5)nc(c23)N2C[C@H]3CC[C@H](N3)[C@@H]12 [Compound 87, 6-((5S,5aS,6S,9R)-12-(((R)-3,3-Difluoro-1-azabicyclo[3.2.0]heptan-5-yl)methoxy)-1-fluoro-5-methyl-5a,6,7,8,9,10-hexahydro-5H-4-oxa-3,10a,11,13,14-pentaaza-6,9-methanonaphtho[1,8-ab]heptalen-2-yl)-3-fluoro-5-(trifluoromethyl)pyridin-2-amine]
KRAS WT [5]
  IC50: 16100 nM
KRAS G12D
  IC50: 68.9 nM
[6]; Homo sapiens, PC-9, 168 h
  IC50: 20000 nM
